From PubChem BioAssay (NCI)
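Growth conditions: 96-well plates. Treatment: test compound, 48 hours, 5 concentrations. Analysis: linear interpolation between bracketing concentrations; unreached endpoints set to highest concentration. The concentration for 50% growth inhibition is given as GI50. The concentration for full growth arrest is given as TGI.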

Columns and labels:
Experiment in all cases: NCI anticancer screen, dose series, 48 h; in the data active = GI50 below about 0.43 µM; inactive = the rest
DU-145 prostate = system: DU-145 prostate
SNB-19 CNS = system: SNB-19 CNS
HCT-15 colon = system: HCT-15 colon
MOLT-4 leukemia = system: MOLT-4 leukemia
HT29 colon = system: HT29 colon
HOP-92 NSCLC = system: HOP-92 NSCLC
T-47D breast = system: T-47D breast
786-0 renal = system: 786-0 renal
OVCAR-4 ovarian = system: OVCAR-4 ovarian
SK-MEL-2 melanoma = system: SK-MEL-2 melanoma
KM12 colon = system: KM12 colon
SF-539 CNS = system: SF-539 CNS
BT-549 breast = system: BT-549 breast
NCI-H226 lung = system: NCI-H226 lung
MDA-MB-435 = system: MDA-MB-435
HCT-116 colon = system: HCT-116 colon
ACHN renal = system: ACHN renal
IGROV1 ovarian = system: IGROV1 ovarian
MDA-MB-231 breast = system: MDA-MB-231 breast
HL-60(TB) leukemia = system: HL-60(TB) leukemia
COLO 205 colon = system: COLO 205 colon
NCI-H23 lung = system: NCI-H23 lung
K-562 leukemia = system: K-562 leukemia
SF-268 CNS = system: SF-268 CNS
NCI-H460 lung = system: NCI-H460 lung
TK-10 renal = system: TK-10 renal
LOX IMVI melanoma = system: LOX IMVI melanoma
SK-MEL-5 melanoma = system: SK-MEL-5 melanoma
SK-MEL-28 melanoma = system: SK-MEL-28 melanoma

O=C1NC(=NCCc2cccs2)S/C1=C\c1ccc2ncccc2c1
22 µM: TGI (BT-549 breast)
> 25 µM: TGI (DU-145 prostate) | TGI (SNB-19 CNS) | TGI (HCT-15 colon) | TGI (MOLT-4 leukemia) | TGI (HT29 colon) | TGI (HOP-92 NSCLC) | TGI (T-47D breast) | TGI (786-0 renal) | TGI (OVCAR-4 ovarian) | TGI (SK-MEL-2 melanoma) | TGI (KM12 colon) | TGI (SF-539 CNS) | TGI (NCI-H226 lung) | TGI (MDA-MB-435) | TGI (HCT-116 colon) | TGI (ACHN renal) | TGI (IGROV1 ovarian) | TGI (MDA-MB-231 breast) | TGI (HL-60(TB) leukemia) | TGI (COLO 205 colon) | TGI (NCI-H23 lung) | TGI (K-562 leukemia) | TGI (SF-268 CNS) | TGI (NCI-H460 lung) | TGI (TK-10 renal) | TGI (LOX IMVI melanoma) | TGI (SK-MEL-5 melanoma) | TGI (SK-MEL-28 melanoma)
inactive: GI50 (SNB-19 CNS) 9.64 µM | GI50 (HCT-15 colon) 8.02 µM | GI50 (MOLT-4 leukemia) 12.6 µM | GI50 (HT29 colon) 11.8 µM | GI50 (HOP-92 NSCLC) 4.7 µM | GI50 (T-47D breast) 10.1 µM | GI50 (786-0 renal) 14.5 µM | GI50 (OVCAR-4 ovarian) 13.2 µM | GI50 (SK-MEL-2 melanoma) > 18.8 µM | GI50 (KM12 colon) 10.8 µM | GI50 (SF-539 CNS) 7.54 µM | GI50 (BT-549 breast) 6.39 µM | GI50 (NCI-H226 lung) 8.21 µM | GI50 (MDA-MB-435) 6.97 µM | GI50 (HCT-116 colon) 5.92 µM | GI50 (ACHN renal) 8.33 µM | GI50 (IGROV1 ovarian) 9.1 µM | GI50 (MDA-MB-231 breast) 19.7 µM | GI50 (HL-60(TB) leukemia) 9.17 µM | GI50 (COLO 205 colon) 7.79 µM | GI50 (NCI-H23 lung) 9.54 µM | GI50 (K-562 leukemia) 8.85 µM | GI50 (SF-268 CNS) 10 µM | GI50 (NCI-H460 lung) 10.3 µM | GI50 (TK-10 renal) 7.77 µM | GI50 (LOX IMVI melanoma) 8.12 µM | GI50 (SK-MEL-5 melanoma) 8.5 µM | GI50 (SK-MEL-28 melanoma) 24.4 µM
